Results reported in patent US9775833B2, “Method for the treatment of NF1- or RAS-associated disorders” (The Trustees of Dartmouth College, priority 2015, dated 2017).
“Also recorded” adds a separate entry of the source.

How the values were obtained:
[1] = test system: yeast model of NF1 deficiency (IRA2, yeast homolog of human NF1); assay: Yeast growth assay, yeast model of NF1 deficiency (OD 600 nm); assay type: cell-based, Saccharomyces cerevisiae; settings: increasing concentrations, 18 hours
Procedure: (§1) IRA2 is a yeast homolog of human NF1. Cells were grown in the presence of increasing concentrations of compound 1 for 18 hours. The absorbance (OD 600 nm) was measured as a surrogate marker of cell growth. The assay has been described previously: see Sanchez et al., Mol. Cancer Ther. 2011 Sep.: 10(9):1740-1750.
as §1, with “Y100B” for “compound 1”

[2] = test system: control strains; assay: Yeast growth assay, control strains (OD 600 nm); assay type: cell-based, Saccharomyces cerevisiae; settings: increasing concentrations, 18 hours
Procedure: as §1
as §1, with “Y100B” for “compound 1”

[3] = test system: NF1-deficient tumor cells (U87-MG); assay: alamarBlue viability/growth assay in U87-MG cells; assay type: cell-based, human
Procedure: Cells were incubated with drug for 15 minutes-72 h. At the noted times, the drug was removed, cells were rinsed with PBS, and replaced with normal media. At 69 hours, 5 uL of alamarBlue viability assay reagent was added to each well. At 72 h, the fluorescence was measured (Ex/Em 544/590 nm) as a surrogate indicator of viability. All values were normalized to the fluorescence observed in a vehicle (DMSO) control.
Cells were incubated with drug for 3 or 7 days. 3 hours before the end of the experiment, 5 uL of alamarBlue viability assay reagent was added to each well. At the end of each timepoint, the fluorescence was measured (Ex/Em 544/590 nm) as a surrogate indicator of viability. All values were normalized to the fluorescence observed in a vehicle (DMSO) control.
Viability Assay. Cells are cultured on plastic 96-well plates. Cell viability is estimated using metabolism as a surrogate marker via the ALAMARBLUE viability/proliferation assay (AbD Serotec; Kidlington, UK) according to the protocol of the manufacturer. The modification of the ALAMARBLUE reagent to a fluorescent substrate is measured with a fluorimeter, after which fluorescent intensity is normalized as a percentage of the vehicle control. Assays are done in triplicate.
Dose Response Assays (Mammalian Cells). To perform drug sensitivity assays, U87-MG cells were plated to 96-well plates at a concentration of 5000 cells/well. After overnight incubation, medium was removed and replaced with 100 μL of medium containing 0-20 uM Compound 1 and DMSO (to normalize DMSO concentrations). In the case of the beta-mercaptoethanol and N-acetyl cysteine co-treatment assays, cells were preincubated with these compounds or a vehicle control for 2 h before being replaced with Y100+/− N-acetyl cysteine, beta-mercaptoethanol or vehicle. Cells were incubated for the noted time with a final 3-hour incubation in 5% AlamarBlue (Thermo Scientific). The plate was scanned at an Ex/Em of 544/590 nm, and fluorescence was normalized to vehicle control wells. Dose-response curves and IC50s were calculated with the Prism 6 software package (GraphPad, San Diego, Calif., USA) by performing a 4-parameter logistic regression with outlier exclusion analysis.

[4] = test system: p62/SQSTM-1; assay: p62/SQSTM-1 level, western blot and immunofluorescence; assay type: cell-based, human; settings: U87-MG, 24 h; western blot, immunofluorescent microscopy
Procedure: U87-MG tumor cells were treated with compound 1 or hydroxychloroquine (an autophagy inhibitor) for 24 h or a cocktail of proteasome inhibitors (bortezomib, BTZ and MG-132) for 2 h. P62 and tubulin levels were determined by western blot.
(§2) U87-MG tumor cells were treated with Y100, hydroxychloroquine (an autophagy inhibitor) or rapamycin (an autophagy inducer) for 24 hours. LC3B-I to LC3-II conversion and tubulin levels were determined by western blot.
Western Blotting. U87-MG cells were plated at a concentration of 500,000 cells per well in a 6-well plate and allowed to adhere overnight. Cells were treated with the noted concentrations and times of controls or compound 1. After treatment, cells were harvested with trypsin, rinsed, and lysed with approximately 75 microliters RIPA buffer with protease and phosphatase inhibitors per 500,000 cells. Protein was quantified with a BCA assay kit (Pierce). 30 micrograms of protein was separated on a 4-15% SDS-PAGE gel (Bio-Rad) by SDS gel electrophoresis. Protein was transferred to a nitrocellulose membrane, blocked with 5% milk in TBST and probed with LC3B (Cell Signaling, 1:1000, overnight), p62/SQSTM-1 (Santa Cruz, 1:1000, 1 h), tubulin (Santa Cruz, 1:10000, 1 h), K63 ubiquitin (Cell Signaling, 1:1000, 1 h), K48 ubiquitin (Cell Signaling, 1:2000, 1 h) in 2% milk in TBST. […]

[5] = test system: LC3B-II; assay: LC3B accumulation, western blot and immunofluorescence; assay type: cell-based, human; settings: U87-MG, 24 hours; western blot, immunofluorescent microscopy
Procedure: as §2
(§3) Western Blotting. U87-MG cells were plated at a concentration of 500,000 cells per well in a 6-well plate and allowed to adhere overnight. Cells were treated with the noted concentrations and times of controls or compound 1. After treatment, cells were harvested with trypsin, rinsed, and lysed with approximately 75 microliters RIPA buffer with protease and phosphatase inhibitors per 500,000 cells. Protein was quantified with a BCA assay kit (Pierce). 30 micrograms of protein was separated on a 4-15% SDS-PAGE gel (Bio-Rad) by SDS gel electrophoresis. Protein was transferred to a nitrocellulose membrane, blocked with 5% milk in TBST and probed with LC3B (Cell Signaling, 1:1000, overnight), p62/SQSTM-1 (Santa Cruz, 1:1000, 1 h), tubulin (Santa Cruz, 1:10000, 1 h), K63 ubiquitin (Cell Signaling, 1:1000, 1 h), K48 ubiquitin (Cell Signaling, 1:2000, 1 h) in 2% milk in TBST. Secondary labeling was performed with a one hour incubation in 1:20000 anti-rabbit HRP or 1:10000 anti-mouse HRP (Jackson Immunoresearch) diluted in 2% milk in TBST. Film was then exposed to ECL-coated blots (Pierce) and developed using a standard film processor.

[6] = test system: lysine 63 and lysine 48 polyubiquitin linked-proteins; assay: K63/K48 polyubiquitin western blot in U87-MG cells; assay type: cell-based, human; settings: 24 hours, comparable to HCQ (50 uM, 24 h) or MG132 plus bortezomib cocktail
Procedure: as §3

[7] = test system: lysine 63 and lysine 48 polyubiquitin linked-proteins; assay: K63/K48 polyubiquitin western blot in U251-MG cells; assay type: cell-based, human; settings: 24 hours, comparable to HCQ (50 uM, 24 h) or MG132 plus bortezomib cocktail
[8] = test system: U87-MG cells; assay: Mitochondrial immunofluorescence (Mitotracker Red / TOMM20) in U87-MG cells; assay type: cell-based, human; settings: 24 hours, Mitotracker Red and TOMM20
Procedure: Polarized mitochondria are labeled with Mitotracker Red, while all mitochondria are labeled with an antibody specific to the mitochondrial protein TOMM20.
Immunofluorescence. U87-MG cells were cultured on poly-D-lysine coated coverslips (Neuvitro Corporation) or poly-L-lysine coated coverslips and treated with Compound 1 (Chembridge) for 24 hours. For the last 30 minutes of treatment, cells were labeled with 100 nM Mitotracker Red (Life Technologies). After treatment and labeling, cells were rinsed with PBS. Cells were fixed in 4% methanol-free paraformaldehyde (Electron Microscopy Services) in PBS (Corning) for 10 minutes at room temperature and blocked with immunofluorescence buffer (2% [v/v] goat serum, 0.2% [v/v] Triton X-100 and 0.05% [w/v] sodium azide in PBS) at RT. TOMM20 was labeled using 1:200 rabbit anti-TOM20 (Santa Cruz) at room temperature for one hour, and cells were rinsed 3 times for 5 minutes with PBST. Secondary labeling was performed with 1:600 goat anti-rabbit F(ab′) 2 DyLight 488 at room temperature for 1 hour (Jackson Immunoresearch) diluted in IF buffer. Cells were then rinsed 2 times for five minutes with PBST and then nuclei were labeled with DAPI in PBS for 5 minutes. Coverslips were mounted on glass slides with ProLong Gold (Life Technologies). […]

[9] = test system: U251-MG cells; assay: Mitochondrial immunofluorescence (Mitotracker Red / TOMM20) in U251-MG cells; assay type: cell-based, human; settings: Mitotracker Red and TOMM20
[10] = test system: U87-MG cells; assay: MitoSOX Red flow cytometry for mitochondrial superoxide; assay type: cell-based, human; settings: 24 h of treatment
Procedure: Flow Cytometry. To determine mitochondrial superoxide levels, 500,000 U87-MG cells/well were plated to a 6-well plate and allowed to adhere overnight. The medium was then replaced with cell culture media containing DMSO or Y100. Cells were treated for 24 hours. 30 minutes before the end of the incubation, 1 micromolar MitoSOX Red was added. At the end of the incubation, cells were rinsed with PBS and trypsinized, and then rinsed two more times. The cells were transferred to flow cytometry tubes and analyzed using a MacsQuant VYB 8-color flow cytometer. MitoSOX Red fluorescence was detected using the Y1-A (PE) channel. 30,000 events per sample were collected. Histograms were generated using the FlowJo flow cytometry analysis software package.

[11] = ROS scavenger co-treated for 72 hours, alamarBlue

| Compound | growth / cell death of NF1-deficient yeast (absorbance OD 600 nm) [1] | growth of control yeast strains (absorbance OD 600 nm) [2] | effect on U87-MG cells on co-treatment with N-acetyl cysteine (NAC) [3, 11] | effect on U87-MG cells on co-treatment with β-mercaptoethanol [3, 11] | effect on cell viability/growth on pretreatment and co-treatment with buthionine sulfoximine (BSO) ([3]; U87-MG, 3-day alamarBlue assay) | drug exposure time giving an irreversible effect on cell viability/growth ([3]; U87-MG, drug removed after 15 minutes-72 h, alamarBlue read at 72 h) [min] | autophagy marker p62/SQSTM-1 (P62 accumulation) [4] | LC3B accumulation (LC3B-I to LC3-II conversion) [5] | accumulation of lysine 63 and lysine 48 polyubiquitin linked-proteins [6] | accumulation of lysine 63 and lysine 48 polyubiquitin linked-proteins [7] | formation of polarized mitochondrial hotspots [8] | formation of polarized mitochondrial hotspots [9] | formation and/or accumulation of mitochondrial superoxide (MitoSOX Red) [10] | viability and/or growth of U87 MG cells (alamarBlue) ([3]; incubated with drug for 3 or 7 days) |
| --- | --- | --- | --- | --- | --- | --- | --- | --- | --- | --- | --- | --- | --- | --- |
| CCOC(=O)c1ccc2c3c(onc13)-c1ccccc1C2=O [compound 1] | selectively inhibits growth or induces cell death | without affecting the control strains | abrogate the effect of compound 1 | abrogate the effect of compound 1 | potentiates the effect of compound 1 on cell viability/growth | ≤ 15 | modulates the autophagy marker and ubiquitin binding scaffold protein p62/SQSTM-1; also recorded: induces P62 accumulation | not LC3B accumulation | induces the accumulation of lysine 63 and lysine 48 polyubiquitin linked-proteins | induces the accumulation of lysine 63 and lysine 48 polyubiquitin linked-proteins | induces the formation of polarized mitochondrial hotspots | induces the formation of polarized mitochondrial hotspots | induces the formation and/or accumulation of mitochondrial superoxide |  |
| COC(=O)c1ccc2c3c(onc13)-c1ccccc1C2=O [compound 2] | selectively inhibits growth or induces cell death | without affecting the control strains |  |  |  |  |  |  |  |  |  |  |  | reduces viability and/or growth |
| CCN(CCO)CCCC(C)Nc1ccnc2cc(Cl)ccc12 (stereo not drawn) [hydroxychloroquine] |  |  |  |  |  |  | induces P62 accumulation | induces accumulation of the autophagy marker LC3B-II |  |  |  |  |  |  |
